{
  "source": "patent US20090241205A1",
  "about": "“METHOD FOR IDENTIFYING CRMP MODULATORS” (priority 2006, published 2009)",
  "key": {"CRMP-2": {"molecular_target": "T1, CRMP-2 (Rattus norvegicus, UniProt P47942)", "T1 construct": "from tissue; host or cells: rat brain (extract/fractions)", "experiment": "biological pull-down (Affinity Fishhook) with biotinylated affinity reagents in rat brain", "type": "binding", "conditions": "biotinyl affinity reagent", "procedure": "Biological pull-down experiments (“Affinity Fishhook”) were performed by incubating a set of four Lacosamide-related affinity-reagents with biotinyl-moieties (R)—N-Benzyl-2-acetamido-6-[Nε-(biotinyl)-2-isothiocynato-6-aminohexanamido]-aminohexanamide((R)-7), (S)—N-Benzyl-2-acetamido-6-[Nε-(biotinyl)-2-isothiocynato-6-aminohexanamido]-aminohexanamide((S)-7), (R)—N-{3-[Nε-(biotinyl)-2-isothiocynato-6-aminohexanamide]-benzyl}-2-acetamido-3-methoxypropion-amide((R)-34) and (R)—N-{4-[Nε-(biotinyl)-2-isothiocynato-6-aminohexanamide]-benzyl}-2-acetamido-3-methoxypropion-amide((R)-35) to rat brain.\n(a) The pattern of affinity captured proteins is completely different from raw extracts and controls and the protein is consistently captured under a variety of conditions."}, "[1]": {"test_system": "neural derivates of murine embryonal stem cells", "experiment": "NMDA excitotoxic insult, survival of neural derivates of murine embryonal stem cells (calcium imaging)", "type": "cell-based", "conditions": "200 μM NMDA; for survival rate after excitotoxic insult: 100 μM compound, NMDA alone 15.6% (16%)"}, "[2]": {"test_system": "hippocampal primary cells", "experiment": "axon growth in hippocampal primary cells (Tau-1 immunofluorescence)", "type": "cell-based", "conditions": "for BDNF-induced axonal growth: 200 ng/ml BDNF", "procedure": "It could be shown that the neurotrophins NT3 and BDNF stimulate axonal outgrowth in a primary culture of embryonal hippocampal neurons. Quantification of neurite outgrowth was performed by immunofluorescence microscopy employing an antibody against the axonal marker protein Tau-1."}, "human CRMP-2": {"molecular_target": "T2, human CRMP-2 (Homo sapiens, UniProt Q16555)", "T2 construct": "expressed in transfected cells; host or cells: Xenopus oocytes (crude membranes)", "experiment": "competition protein binding with [14C]-labeled lacosamide, crude membranes from CRMP-2 transfected Xenopus oocytes", "procedure": "It was therefore the object of the present invention to provide a method of identifying compounds suitable for the prevention, alleviation or/and treatment of diseases or conditions which can be treated by Lacosamide, based on the mode of action of Lacosamide. […] The binding was confirmed in experiments employing heterologously expressed human CRMP-2 in Xenopus oocytes.\nBased on the results of the previous study, the present binding curve ranged from 1 to 100 μM (10 concentrations, in triplicates)."}},
  "note": "“Also recorded” adds a separate entry of the source.",
  "data": [
    {"smiles": "COC[C@@H](NC(C)=O)C(=O)NCc1ccc(NC(=O)C(CCCCNC(=O)CCCCC2SCC3NC(=O)NC32)N=C=S)cc1", "note": "(stereo partly drawn) [(R)-35, (R)—N-{4-[Nε-(biotinyl)-2-isothiocynato-6-aminohexanamide]-benzyl}-2-acetamido-3-methoxypropion-amide]", "values": [
      {"measurement": "proteins captured in pull-down", "setting": "CRMP-2", "value": "enrichment of an overlapping set of proteins, including collapsing response mediator protein (CRMP-2)"}
    ]},
    {"smiles": "COC[C@H](NC(C)=O)C(=O)NCc1ccccc1", "note": "(single isomer, unassigned) [S-enantiomer of lacosamide]", "values": [
      {"measurement": "survival rate after excitotoxic insult", "setting": "[1]; listed as S-enantiomer", "value": "only a minor effect"}
    ]},
    {"smiles": "CC(=O)N[C@@H](CCCCNC(=O)C(CCCCNC(=O)CCCC[C@@H]1SC[C@@H]2NC(=O)N[C@@H]21)N=C=S)C(=O)NCc1ccccc1", "note": "(stereo partly drawn) [(S)-7, (S)—N-Benzyl-2-acetamido-6-[Nε-(biotinyl)-2-isothiocynato-6-aminohexanamido]-aminohexanamide]", "values": [
      {"measurement": "proteins captured in pull-down", "setting": "CRMP-2", "value": "enrichment of an overlapping set of proteins, including collapsing response mediator protein (CRMP-2)"}
    ]},
    {"smiles": "COC[C@@H](NC(C)=O)C(=O)NCc1ccccc1", "note": "[Lacosamide, (R)-2-acetamide-N-benzyl-3-methoxypropionamide]", "values": [
      {"measurement": "NT3-induced axonal growth", "setting": "[2]; 50 ng/ml NT3, 100 μM Lacosamide", "value": "significantly decreases"},
      {"measurement": "BDNF-induced axonal growth", "setting": "[2]; 1 μM Lacosamide", "value": "significantly decreases"},
      {"measurement": "BDNF-induced axonal growth", "setting": "[2]; 100 μM Lacosamide", "value": "significantly decreases"},
      {"measurement": "basal axonal outgrowth (axon length)", "setting": "[2]; Lacosamide 1-200 μM, no neurotrophin", "value": "does not significantly change; also recorded: did not significantly change"},
      {"measurement": "NT3-induced neuronal outgrowth", "setting": "[2]; concentration not stated in text (FIG. 2)", "value": "attenuated"},
      {"measurement": "BDNF-induced neuronal outgrowth", "setting": "[2]; concentration not stated in text (FIG. 3)", "value": "attenuated"},
      {"measurement": "survival rate after excitotoxic insult", "setting": "[1]", "value": 71, "unit": "%"},
      {"measurement": "neuroprotective effect after pre-incubation with CRMP-2 siRNA", "setting": "[1]; CRMP-2 siRNA pre-incubation", "value": "diminished"},
      {"measurement": "Kd", "setting": "human CRMP-2", "value": "< 5", "unit": "µM"},
      {"measurement": "Bmax", "setting": "human CRMP-2; [14C]-lacosamide, binding curve 1 to 100 μM", "value": "about 200 pM/mg"},
      {"measurement": "specific binding", "setting": "human CRMP-2; crude membranes from CRMP-2 transfected Xenopus oocytes, 1 to 100 μM", "value": "competitive and specific binding was observed"}
    ]},
    {"smiles": "CC(=O)N[C@H](CCCCNC(=O)C(CCCCNC(=O)CCCC[C@@H]1SC[C@@H]2NC(=O)N[C@@H]21)N=C=S)C(=O)NCc1ccccc1", "note": "(stereo partly drawn) [(R)-7, (R)—N-Benzyl-2-acetamido-6-[Nε-(biotinyl)-2-isothiocynato-6-aminohexanamido]-aminohexanamide]", "values": [
      {"measurement": "proteins captured in pull-down", "setting": "CRMP-2", "value": "enrichment of an overlapping set of proteins, including collapsing response mediator protein (CRMP-2)"}
    ]},
    {"smiles": "COC[C@@H](NC(C)=O)C(=O)NCc1cccc(NC(=O)C(CCCCNC(=O)CCCCC2SCC3NC(=O)NC32)N=C=S)c1", "note": "(stereo partly drawn) [(R)-34, (R)—N-{3-[Nε-(biotinyl)-2-isothiocynato-6-aminohexanamide]-benzyl}-2-acetamido-3-methoxypropion-amide]", "values": [
      {"measurement": "proteins captured in pull-down", "setting": "CRMP-2", "value": "enrichment of an overlapping set of proteins, including collapsing response mediator protein (CRMP-2)"}
    ]}
  ]
}
